The values that follow come from patent US20120225837A1, “MEDICINAL AGENT FOR DISEASE ASSOCIATED WITH EPSTEIN-BARR VIRUS, AND METHOD FOR SCREENING OF THE MEDICINAL AGENT” (Kyoto University, priority 2007, published 2012).

Where two headings read alike, the source gives them in different places.

A short description of data set [1]: MTT cytotoxicity assay, cell having human-TK gene introduced. It counts as cell-based. The note with it: human. An excerpt: (§1) At first, a primer was designed on the basis of the data base information of NCBI, followed by extracting DNA from B95a cells (J. Virol. 1990; 64(2): 700-5), and the TK gene of an EB virus was amplified by PCR method and cloned in the multicloning site of an expression plasmid vector pCI-neo (pCI-EB-TKneo). Similarly, human-TK gene was also amplified by PCR method and cloned (pCI-huTKneo). Whether the cloned gene fragment was a desired gene or not was judged by determining the base sequence.
(§2) Then, TK-defect human osteosarcoma cells (143B) was transfected by lipofection method (Proc. Natl. Acad. Sci. USA 1987 November; 84(21): 7413-7) with the plasmid vector capable of expressing EB virus-TK gene or the plasmid vector capable of expressing human-TK gene, namely, pCI-EB-TKneo or pCI-huTKneo, and cells having each plasmid introduced therein were selected by the use of neomycin.
(§3) The drug sensitivity of 143B/EB virus-TK, 143B/hu-TK, 143B TK(−) cells and EB virus persistent infection cells was determined on the basis of the cytotoxicity of each drug. That is, cells (143B/EB virus-TK, 143B/hu-TK and 143B TK(−) cells: 5×10^4 cells/100 μl; EB virus persistent infection cells: 20×10^4 cells/100 μl) were added to 96-well flat-bottom culture plates containing 100 μl of various concentrations of each drug. After 5 days of culture, the number of surviving cells was determined by MTT [3-(4,5-dimethylthiazol-2-yl)-2,5-diphenyltetrazolium bromide] assay. The cytotoxicity of the test drugs is expressed in terms of a concentration (CC50) at which the cell viability was decreased to 50%.
(In general: Formazan colour is commonly taken as a measure of viable cells.)

The subject of data set [2] is 143B/EB virus-TK cells. The experiment in a line: cells. The note with it: read-out: CC50 143B/EB Virus-TK.
Description: as §1, §2, §3

For data set [3], the system named is Raji cells. Nature of the data set: MTT cytotoxic effect on EB virus infection cancer cells (Raji). It counts as cell-based. To be noted: expression of TK −, MTT assay. How it is done: as §3
(§4) The cytotoxic effect of the medicinal agent of the present invention on EB virus infection cancer cells such as NC37 cells was investigated by MTT assay. […] However, neither of them was effective in cells in which EB virus-TK gene had not been expressed.

Data set [4] has as its system KAI3 cells. The experiment in a line: MTT assay on cells with a chronic active EB virus infectious disease. It counts as cell-based. How it is done: as §3
A chronic active EB virus infectious disease is an unfavorable infectious disease caused by infection of not B cells but natural killer T cells (NKT cells) with an EB virus. As such a chronic infection cell strain, KAI3 cells (Clin. Exp. Immunol. 1999 March; 115(3): 385-92) were purchased from Health Science Research Resources Bank, and the effect of the medicinal agent of the present invention on them was investigated by MTT assay. GCV was used as a control agent.

Data set [5] has as its system B95a cells. The experiment in a line: MTT cytotoxic effect on EB virus infection cancer cells (B95a). The note with it: expression of TK +, MTT assay. It counts as cell-based. As to the method: as §3, §4
In data set [6] the test system is EB virus. Nature of the data set: Acute infection of B lymphocytes with EB virus, EB virus DNA by real-time PCR. It counts as cell-based. To be noted: B lymphocytes of a healthy person, cultured 2 weeks, PBMC#1287 and PBMC#5926, FIG. 2. How it is done:
B lymphocytes were separated from the blood of a healthy person. The B lymphocytes were infected with an EB virus in the presence of the medicinal agent of the present invention and cultured for 2 weeks. Thereafter, the infected B cells were recovered and then washed, followed by extraction of DNA. The amount of EB virus DNA in the B lymphocytes was determined by real-time PCR and taken as a virus copy number.
For orientation: Quantitative PCR measures a nucleic acid by following its amplification.

Data set [7] concerns Namalwa cells. Nature of the data set: MTT cytotoxic effect on EB virus infection cancer cells (Namalwa). It counts as cell-based. To be noted: expression of TK −, MTT assay. How it is done: as §3, §4
Data set [8] deals with NC37 cells. Nature of the data set: MTT cytotoxic effect on EB virus infection cancer cells (NC37). It counts as cell-based. The note with it: NC37, expression of TK +, MTT assay. How it is done:
as §3, §4

Data set [9] deals with HS-Sultan cells. Nature of the data set: MTT cytotoxic effect on EB virus infection cancer cells (HS-Sultan). To be noted: expression of TK −, MTT assay. It counts as cell-based. How it is done:
as §3, §4

In data set [10] the test system is 143B/hu-TK cells. Nature of the data set: MTT cytotoxicity assay, cell having human-TK gene introduced. It counts as cell-based.
Description: as §1, §2, §3

Where [11] appears, read: MTT assay, 5 days of culture, read-out: CC50 143B/hu-TK.

In turn, `O=c1[nH]c(=O)n([C@@H]2O[C@H](CO)[C@@H](O)[C@@H]2O)cc1C=CBr` [BvaraU, 1-β-D-arabinofuranosyl-5-bromovinyluracil] showed a CC50 at 5 days in data set [1] above 200 µM. Further, the CC50 in data set [2] (Homo sapiens, 143B, 120 h) is above 200 µM.
The compound `Cc1cn([C@@H]2S[C@H](CO)[C@@H](O)[C@@H]2F)c(=O)[nH]c1=O` [Medicinal agent of the invention, 1-(2-deoxy-2-fluoro-4-thio-β-D-arabinofuranosyl)-5-methyluracil] registered a CC50 at 5 days in data set [1] above 300 µM. Also, the “Cytotoxic effect on EB virus infection cancer cells” value in data set [3] was 22 µM; in [5], 2.2 µM; in data set [7] it was above 100 µM; in data set [8], 2.1 µM; in data set [9], above 100 µM. Moreover, the “Effect on cells with a chronic active EB virus infectious disease” value in data set [4] was determined as 4.7 µM. Further, in data set [6], the “Amount of EB virus DNA in the B lymphocytes (virus copy number)” value was “reduces the amount of EB virus DNA in the B lymphocytes and inhibits new infection”. In addition, the CC50 in data set [2] (Homo sapiens, 143B, 120 h) was 0.11 µM.
Take `Cc1cn(C2(C#N)C[C@H](O)[C@@H](CO)O2)c(=O)[nH]c1=O` (stereo partly shown) [1′-CN-dT, 1-(C-cyano-2-deoxy-ribofuranosyl)thymine]: the CC50 in data set [10] is above 100 µM; in [2] (MTT assay, 5 days of culture) it was above 100 µM.
In [1], `Nc1nc(O)c2ncn(COC(CO)CO)c2n1` [GCV, ganciclovir] returned a CC50 at 5 days above 100 µM. Further, the “Cytotoxic effect on EB virus infection cancer cells” value was 55 µM in data set [3]; 36 µM in data set [5]; above 100 µM in data set [7]; 27 µM in data set [8]; above 100 µM in data set [9]. The “Effect on cells with a chronic active EB virus infectious disease” value in [4] is 105 µM. Besides, in [2] (Homo sapiens, 143B, 120 h), the CC50 is above 100 µM.
As for “1-(2-deoxy-2-fluoro-4-thio-β-D-arabinofuranosyl)cytosine [4′-S-FMAC]”, the CC50 in data set [10] (setting [11]) was found to be 0.04 µM; in [2] (MTT assay, 5 days of culture) it was 0.066 µM.
`O=c1[nH]c(=O)n([C@H]2C[C@H](O)[C@@H](CO)O2)cc1F` [5FdU, 5-fluoro-2′-deoxyuridine] displayed a CC50 at 5 days in data set [1] of 0.27 µM. Besides, the CC50 in [2] (Homo sapiens, 143B, 120 h) stood at 0.4 µM.
In turn, `Nc1nc2c(ncn2COCCO)c(=O)[nH]1` [ACV, acyclovir] gave a CC50 at 5 days in data set [1] above 100 µM.
Take `O=c1[nH]c(=O)n([C@H]2C[C@H](O)[C@@H](CO)O2)cc1C=CBr` [BVDU, 5-bromovinyl-2′-deoxyuridine]: in [1] (setting [11]), the CC50 at 5 days is above 300 µM. The CC50 in [2] (Homo sapiens, 143B, 120 h) stood at 122 µM.
